In US7384934B2, “Piperazine substituted aryl benzodiazepines” (Eli Lilly and Company, priority 2002, dated 2008):
Where a name gives a salt, the structure may show the parent alone. Read-outs that look alike come from different tables or passages of the source.

Columns and labels:
Dopamine D2 receptor = target: T1, Dopamine D2 receptor (Homo sapiens, UniProt P14416); test: Dopamine D2 receptor binding assay ([125I]iodospiperone)
T1 construct: purchased Receptor Biology (now owned by NEN) RBHD2CM
T1 sequence (P14416 1-414 isoform P14416-2): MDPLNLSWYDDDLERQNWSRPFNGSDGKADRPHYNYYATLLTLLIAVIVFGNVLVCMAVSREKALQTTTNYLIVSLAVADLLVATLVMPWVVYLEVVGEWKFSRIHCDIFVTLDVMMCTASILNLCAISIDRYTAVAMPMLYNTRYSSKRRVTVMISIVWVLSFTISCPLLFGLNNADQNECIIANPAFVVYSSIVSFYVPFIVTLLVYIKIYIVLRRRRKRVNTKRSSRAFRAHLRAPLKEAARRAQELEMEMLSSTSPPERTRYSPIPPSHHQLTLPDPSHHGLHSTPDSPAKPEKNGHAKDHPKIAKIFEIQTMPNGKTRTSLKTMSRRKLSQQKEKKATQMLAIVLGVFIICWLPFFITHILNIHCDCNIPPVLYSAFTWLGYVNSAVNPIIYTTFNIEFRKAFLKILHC
Protocol: The assay buffers used are 50 mM Tris-HCl pH 7.4, 120 mM NaCl, 5 mM KCl, 5 mM MgCl2, 1 mM EDTA for the Dopamine D2s receptor binding assay. […] The membranes used are from Receptor Biology (now owned by NEN), Cat # RBHD2CM for the D2 receptor.
Compounds are obtained as 10 mM stocks in 100% DMSO. They are diluted to 1 mM in 100% DMSO by adding 180 μL DMSO to 20 μL of stock in 96 well plates using a multidrop. […] This is done using a TECAN robot.
The radioligand is diluted in assay buffer to provide 0.1 nM for the D2 assay. Each vial of membranes is diluted up to 92 mL in assay buffer. The final assay volume is 250 μL consisting of 210 μl of diluted membranes, 20 μL of compound or 10% DMSO for total binding, and 20 μL of diluted radioligand. The compounds are transferred from drug dilution plates into coming 96 well assay plates using a 96 well Multimek pipettor. Radioligand and membranes are added to assay plates using multidrop pipettors. Non-specific binding is determined in wells containing a final concentration of 5 μM haloperidol. The final drug concentration range in half logs is from 10 μM down to 0.1 nM.
After addition of drug, membrane, and ligand, the plates are incubated for 2 hours at room temperature. During this time 96 well Millipore filter plates (MAFBNOB50) are soaked for a least 30 minutes with 200 μL per well of 0.5% polyethyleneimine.
The 0.5% PEI is removed from filterplate wells using a TiterTek MAP aspirator and 200 μL of the incubation mixture is transferred from the incubation plate to the filterplate after mixing. This transfer is done using the 96 tip Mutimek pipettor. After transfer to the filterplate filterplates are extracted and ished twice with 220 μL per well of cold buffer on the MAP aspirator. The peel away bottoms are removed from the filterplates and 60 μL per well of microscint 20 scintillation fluid is added per well using a multidrop. […]

[1] = target: T2, human Histamine-1 receptors (Homo sapiens, UniProt P35367); test: 3H-Pyrilamine SPA binding to human Histamine-1 receptors; settings: read-out: Receptor affinity (Ki, nM) H1
T2 construct: expressed in transfected cells
T2 sequence (P35367 whole entry): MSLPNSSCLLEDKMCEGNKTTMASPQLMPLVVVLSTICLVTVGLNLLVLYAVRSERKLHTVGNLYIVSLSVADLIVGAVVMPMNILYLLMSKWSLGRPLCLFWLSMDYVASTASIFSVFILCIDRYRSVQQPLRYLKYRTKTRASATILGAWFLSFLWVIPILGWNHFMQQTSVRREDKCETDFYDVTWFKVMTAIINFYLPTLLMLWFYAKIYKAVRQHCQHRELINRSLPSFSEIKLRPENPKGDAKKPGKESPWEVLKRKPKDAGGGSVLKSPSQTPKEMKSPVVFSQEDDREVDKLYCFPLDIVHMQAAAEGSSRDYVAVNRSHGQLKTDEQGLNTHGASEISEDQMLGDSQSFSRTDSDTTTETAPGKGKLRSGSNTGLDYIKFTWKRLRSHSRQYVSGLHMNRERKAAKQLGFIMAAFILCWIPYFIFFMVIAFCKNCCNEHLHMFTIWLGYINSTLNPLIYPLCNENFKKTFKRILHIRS
Protocol: Their ability of a compound to block histamine H1 receptors can be estimated in vitro by measuring the in vitro histamine H1 receptor affinity. […] The ratio of in vitro histamine H1 receptor affinity divided by the in vitro dopamine D2 receptor affinity, both expressed as Ki's, is an estimate of a compound's likelihood to cause weight gain at therapeutic levels. […] Incubations were performed in a total volume of 200 μl in 96 well assay plates. 50 μl ^3H-pyrilamine (NEN, 20 Ci/mmol, final concentration=3.0 nM) was added to 50 μl of test compounds dissolved in water (±DMSO and/or glacial acetic acid). 50 μl Wheat Germ Agglutinin (WGA) bead, at 1 mg/well, (Amersham Life Sciences) in assay buffer (67 mM TrisCl pH 7.4) were then added. Membrane homogenate from cells expressing human Histamine-1 receptors, approximately 700,000 cells/well, was added last. The plates were covered with sealing tape (FasCal) and allowed to incubate at room temperature for 2 hours. The plates were then centrifuged at approximately 200×g for 10 minutes at room temperature. The amount of ^3H-pyrilamine bound to the membranes, ie proximate to the WGA bead, was then determined using a Wallac MicroBeta Trilux Scintillation Counter (Wallac, Inc.).

dopamine D2 receptors = target: T3, dopamine D2 receptors (Rattus norvegicus, UniProt P61169); test: DOPAC concentrations in rat nucleus accumbens (in vivo D2 receptor blockade); settings: dose that increases DOPAC to 200% of control, 90 minutes after gavage
T3 construct: from tissue; host or cells: male Sprague Dawley rats, nucleus accumbens (in vivo)
T3 sequence (P61169 whole entry): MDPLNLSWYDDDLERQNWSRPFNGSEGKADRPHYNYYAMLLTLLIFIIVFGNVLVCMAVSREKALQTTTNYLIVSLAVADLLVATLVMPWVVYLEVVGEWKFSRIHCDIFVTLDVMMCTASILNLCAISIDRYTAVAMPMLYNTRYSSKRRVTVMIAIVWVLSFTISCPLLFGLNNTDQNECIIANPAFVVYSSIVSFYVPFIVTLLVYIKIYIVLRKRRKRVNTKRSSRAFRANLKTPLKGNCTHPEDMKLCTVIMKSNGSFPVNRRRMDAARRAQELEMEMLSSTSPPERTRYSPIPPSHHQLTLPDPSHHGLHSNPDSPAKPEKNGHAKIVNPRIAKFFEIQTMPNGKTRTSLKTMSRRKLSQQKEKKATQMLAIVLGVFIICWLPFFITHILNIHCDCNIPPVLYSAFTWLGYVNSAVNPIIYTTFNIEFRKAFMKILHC
Protocol: Antipsychotics are believed to exert at least part of their therapeutic effects through blockade of the dopamine D2 receptor. The ability of a compound to block dopamine D2 receptors in the rat in vivo was determined by measuring the effect of the compound on the level of DOPAC (3,4-dihydroxyphenylacetic acid), a metabolite of dopamine, in nucleus accumbeus of the rat. Dopamine D2 receptor antagonists increase the release of dopamine into the synapse due to blockade of the dopamine D2 autoreceptor. This increased release of dopamine cannot be directly measured, since the efficiency of the dopamine reuptake system prevents increases in synaptic dopamine concentrations. Instead, increases in the levels of the dopamine metabolites DOPAC (3,4-dihydroxyphenylacetic acid) and HVA (homovanillic acid) reflect increased neuronal dopaminergic activity in vivo.
(§1) Male Sprague Dawley rats (Harlan Sprague Dawley, Inc., Indianapolis, Ind.) weighing 110 grams were fasted overnight. […] All other compounds were administered at 5 ml/kg in dilute lactic acid. Tissues were dissected, frozen on dry ice and stored at −70° C. prior to analysis.
Rat nucleus accumbens DOPAC (3,4-dihydroxyphenylacetic acid) concentrations were measured using high-pressure liquid chromatography with electrochemical detection (HPLC-EC). Tissues were sonicated in 1 ml 0.1N TCA. After centrifugation, a 25 µl aliquot of supernatant was injected onto a BDS Hypersyl C18 column (150×4.6 mm, Keystone Scientific). The elution buffer contained 75 mM sodium phosphate monobasic, 0.5 mM EDTA, 350 mg/L 1-octanesulfonate sodium, 7% acetonitrile (v/v) and 0.7% tetrahydrofuran (v/v), pH 3.0. The flow rate was 1.2 ml/min at 40° C. Peak heights were measured at 750 mV at 10 nA sensitivity and compared with samples containing known amounts of DOPAC standards.

[2] = target: T4, hypothalamic histamine H1 receptors (Rattus norvegicus, UniProt P31390); test: Histamine H1 ex vivo binding ([3H]-pyrilamine, rat hypothalamic homogenates); assay type: in vivo; settings: rat hypothalamus; dose required to occupy 50% of histamine H1 receptors; 90 minutes after gavage
T4 construct: from tissue; host or cells: hypothalamus of male Sprague Dawley rats
T4 sequence (P31390 whole entry): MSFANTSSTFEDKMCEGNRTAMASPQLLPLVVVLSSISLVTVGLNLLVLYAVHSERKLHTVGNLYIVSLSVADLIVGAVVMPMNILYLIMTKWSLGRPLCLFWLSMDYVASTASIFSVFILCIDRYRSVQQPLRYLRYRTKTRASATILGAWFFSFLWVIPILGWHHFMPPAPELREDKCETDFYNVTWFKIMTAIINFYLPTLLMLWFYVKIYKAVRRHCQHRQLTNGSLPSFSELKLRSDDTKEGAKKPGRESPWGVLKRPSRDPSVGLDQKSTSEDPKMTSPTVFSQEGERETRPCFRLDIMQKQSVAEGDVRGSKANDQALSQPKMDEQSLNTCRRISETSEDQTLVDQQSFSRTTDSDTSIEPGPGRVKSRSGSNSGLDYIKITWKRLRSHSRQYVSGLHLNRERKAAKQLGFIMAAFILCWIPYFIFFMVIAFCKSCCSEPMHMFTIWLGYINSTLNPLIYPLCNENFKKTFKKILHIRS
Protocol: The in vivo potency of a compound to occupy hypothalamic histamine H1 receptors in the rat was determined using a histamine H1 ex vivo binding assay.
as §1
Ex vivo binding of the histamine H1 antagonist [^3H]-pyrilamine (NEN Life Science Products) to rat hypothalamic homogenates was determined. Tissues were homogenized in 600 μl incubation buffer (50 mM sodium phosphate monobasic, pH 7.4) and pre-incubated 10 minutes at 37° C. to remove endogenous histamine. Triplicate tubes, each containing 100 μl homogenate, were combined with 1 ml buffer containing 3 nM [^3H]-pyrilamine and incubated 30 minutes at 25° C. […] [^3H]-pyrilamine binding was measured after separation filtration using a Brandell cell harvester with GF/C filters which had been soaked in 0.1% polyethylenimine. ED50 values were determined using the Allfit statistical program for displacement binding.

[3] = relative Ki scale of Table 5, read-out: Relative D2 Receptor Binding Affinity Ki
[4] = read-out: Receptor affinity (Ki, nM) D2

Cc1cc2c(s1)Nc1ccccc1N=C2N1CCN(C)C(COc2ccccc2)C1 (stereo in doubt) [Example 271, (R)-10-(4-Methyl-3-phenoxymethyl-piperazin-1-yl)-2-methyl 4H-3-thia-4,9-diaza-benzo[f]azulene]
melting point: 74 to 88 °C

COCC[C@H]1CN(C2=Nc3ccccc3Nc3ccc(C)cc32)CCN1 [Example 199, (S)-2-Methyl-11-[3-(2-methoxy-ethyl)-piperazin-1-yl]-5H-dibenzo[b,e][1,4]diazepine]
Ki (Dopamine D2 receptor; [3]): 100 to 1000 nM
melting point: 63 °C (dec.)

COCC[C@H]1CN(C2=Nc3ccccc3Nc3ccc(C(C)C)cc32)CCN1 [Example 200, (S)-2-Isopropyl-11-[3-(2-methoxy-ethyl)-piperazin-1-yl]-5H-dibenzo[b,e][1,4]diazepine]
melting point: 158 to 160 °C

COCC[C@H]1CN(C2=Nc3ccccc3Nc3ccc(C(F)(F)F)cc32)CCN1 [Example 202, (S)-2-Trifluoromethyl-11-[3-(2-methoxy-ethyl)-piperazin-1-yl]-5H-dibenzo[b,e][1,4]diazepine]
melting point: 71 to 82 °C

COCC[C@H]1CN(C2=Nc3ccccc3Nc3ccc(C)cc32)CCN1C [Example 216, (S)-2-Methyl-11-[3-(2-methoxy-ethyl)-4-methyl-piperazin-1-yl]-5H-dibenzo[b,e][1,4]diazepine]
Ki (Dopamine D2 receptor; [3]): 100 to 1000 nM
melting point: 60 °C (dec.)

COCC[C@H]1CN(C2=Nc3ccccc3Nc3ccc(C(F)(F)F)cc32)CCN1C [Example 221, (S)-2-Trifluoromethyl-11-[3-(2-methoxy-ethyl)-4-methyl-piperazin-1-yl]-5H-dibenzo[b,e][1,4]diazepine]
melting point: 48 to 56 °C

Cc1cc2c(s1)Nc1ccccc1N=C2N1CCN[C@@H](CCO)C1.Cl.Cl [Example 240, (S)-2-[4-(2-Methyl-4H-3-thia-4,9-diazabenzo[f]azulene-10-yl)-piperazin-2-yl]ethanol dihydrochloride]
Ki (Dopamine D2 receptor; [3]): 10 to 100 nM
melting point: > 250 °C (dec.)

Cc1cc2c(s1)Nc1ccccc1N=C2N1CCN[C@H](CCO)C1.Cl.Cl [Example 241, (R)-2-[4-(2-Methyl-4H-3-thia-4,9-diazabenzo[f]azulene-10-yl)-piperazin-2-yl]ethanol dihydrochloride]
Ki (Dopamine D2 receptor; [3]): 100 to 1000 nM
melting point: > 250 °C (dec.)

Cc1cc2c(s1)Nc1ccccc1N=C2N1CCN[C@@H](COc2ccccc2)C1 [Example 244, (R)-10-(3-Phenoxymethyl-piperazin-1-yl)-2-methyl-4H-3-thia-4,9-diaza-benzo[f]azulene]
melting point: 64 to 81 °C

COCC[C@H]1CN(C2=Nc3cc(F)c(F)cc3Nc3sc(C)cc32)CCN1 [Example 254, (S)-6,7-Difluoro-10-[3-(2-methoxy-ethyl)-piperazin-1-yl]-2-methyl-4H-3-thia-4,9-diaza-benzo[f]azulene]
melting point: 198 to 202 °C (dec.)

COCC[C@H]1CN(C2=Nc3cc(Cl)ccc3Nc3sc(C)cc32)CCN1 [Example 258, (S)-7-Chloro-10-[3-(2-methoxy-ethyl)-piperazin-1-yl]-2-methyl-4H-3-thia-4,9-diazabenzo[f]azulene]
melting point: 179 to 183 °C (dec.)

Cc1cc2c(s1)Nc1ccccc1N=C2N1CCN(C)[C@@H](CO)C1 [Example 259, (R)-[1-Methyl-4-(2-methyl-4H-3-thia-4,9-diaza-benzo[f]azulen-10-yl)-piperazin-2-yl]-methanol]
melting point: 118 to 124 °C

COC[C@H]1CN(C2=Nc3ccccc3Nc3sc(C)cc32)CCN1C [Example 260, (R)-10-(3-Methoxymethyl-4-methyl-piperazin-1-yl)-2-methyl-4H-3-thia-4,9-diaza-benzo[f]azulene]
melting point: 76 to 80 °C

Cc1cc2c(s1)Nc1ccccc1N=C2N1CCN(C)[C@@H](COc2ccccc2)C1 [Example 265, (R)-10-(4-Methyl-3-phenoxymethyl-piperazin-1-yl)-2-methyl-4H-3-thia-4,9-diaza-benzo[f]azulene]
melting point: 74 to 88 °C

Cc1cc2c(s1)Nc1ccccc1N=C2N1CCN(C)[C@@H](COCc2ccccc2)C1 [Example 270, (R)-10-(3-Benzyloxymethyl-4-methyl-piperazin-1-yl)-2-methyl-4H-3-thia-4,9-diaza-benzo[f]azulene]
melting point: 55 to 65 °C

COCC[C@H]1CN(C2=Nc3ccc(F)cc3Nc3sc(C)cc32)CCN1C [Example 279, (S)-6-Fluoro-10-[3-(2-methoxy-ethyl)-4-methyl-piperazin-1-yl]-2-methyl-4H-3-thia-4,9-diaza-benzo[f]azulene hydrochloride]
Ki (Dopamine D2 receptor; [4]): 6 nM
Ki [1]: 24 nM
In vivo activity D2: DOPAC elevation (ED200) (dopamine D2 receptors): 6 mg/kg, po
In vivo activity H1: H1 ex vivo binding (ED50) [2]: >30 mg/kg, po

COCC[C@H]1CN(C2=Nc3cc(F)c(F)cc3Nc3sc(C)cc32)CCN1C.Cl.Cl [Example 288, (S)-6,7-Difluoro-10-[3-(2-methoxy-ethyl)-4-methyl-piperazin-1-yl]-2-methyl-4H-3-thia-4,9-diaza-benzo[f]azulene hydrochloride]
Ki (Dopamine D2 receptor; [4]): 11 nM
Ki [1]: 80 nM
In vivo activity D2: DOPAC elevation (ED200) (dopamine D2 receptors): 6.4 mg/kg, po
In vivo activity H1: H1 ex vivo binding (ED50) [2]: >30 mg/kg, po

COCC[C@H]1CN(C2=Nc3cc(Cl)ccc3Nc3sc(C)cc32)CCN1C [Example 292, (S)-7-Chloro-10-[3-(2-methoxy-ethyl)-4-methyl-piperazin-1-yl]-2-methyl-4H-3-thia-4,9-diaza-benzo[f]azulene dihydrochloride]
Ki (Dopamine D2 receptor; [4]): 13 nM
Ki [1]: 48 nM
In vivo activity D2: DOPAC elevation (ED200) (dopamine D2 receptors): 7.5 mg/kg, po
In vivo activity H1: H1 ex vivo binding (ED50) [2]: >30 mg/kg, po
